According to PubChem BioAssay AID248 (DTP/NCI, 2004):
Several values for one entry are separate records, joined by “and”; a condition that tells them apart may be missing. Identical values can stand only once. Inconclusive results and toxic doses are left out. No stated cut-off is given here; in the data, active means T/C of 150% or more; inactive means T/C below 125%.

Test system: L1210 leukemia ip in BDF1 mice, survival T/C
Experiment: NCI In Vivo Anticancer Drug Screen. Data for tumor model L1210 Leukemia (intraperitoneal) in B6D2F1 (BDF1) mice
Settings: endpoint: mean survival time, higher = longer survival
Procedure, shortened: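 Mice bearing the transplanted tumor received compound or vehicle. Survival of the treated group was divided by that of the vehicle-treated control group to give the ratio.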

[1] = dose: 100.0 mg/kg/injection, schedule: Q01DX009 (ip), vehicle: saline with Tween-80
[2] = dose: 100.0 mg/kg/injection, schedule: Q04DX003 (ip), vehicle: Klucel (hydroxypropylcellulose) (HPC)
[3] = dose: 100.0 mg/kg/injection, schedule: Q04DX003 (ip), vehicle: saline
[4] = dose: 200.0 mg/kg/injection, schedule: Q01DX009 (ip), vehicle: saline with Tween-80
[5] = dose: 200.0 mg/kg/injection, schedule: Q04DX003 (ip), vehicle: Klucel (hydroxypropylcellulose) (HPC)
[6] = dose: 200.0 mg/kg/injection, schedule: Q04DX003 (ip), vehicle: saline
[7] = dose: 400.0 mg/kg/injection, schedule: Q01DX009 (ip), vehicle: saline with Tween-80
[8] = dose: 400.0 mg/kg/injection, schedule: Q04DX003 (ip), vehicle: Klucel (hydroxypropylcellulose) (HPC)
[9] = dose: 400.0 mg/kg/injection, schedule: Q04DX003 (ip), vehicle: saline
[10] = dose: 50.0 mg/kg/injection, schedule: Q01DX009 (ip), vehicle: saline with Tween-80
[11] = dose: 100.0 mg/kg/injection, schedule: Q04DX002 (ip), vehicle: saline with Tween-80
[12] = dose: 200.0 mg/kg/injection, schedule: Q04DX002 (ip), vehicle: saline with Tween-80
[13] = dose: 400.0 mg/kg/injection, schedule: Q04DX002 (ip), vehicle: saline with Tween-80
[14] = dose: 100.0 mg/kg/injection, schedule: Q01DX009 (ip), vehicle: Klucel (hydroxypropylcellulose) (HPC)
[15] = dose: 200.0 mg/kg/injection, schedule: Q01DX009 (ip), vehicle: Klucel (hydroxypropylcellulose) (HPC)
[16] = dose: 100.0 mg/kg/injection, schedule: Q04DX003 (ip), vehicle: saline with Tween-80
[17] = dose: 200.0 mg/kg/injection, schedule: Q04DX003 (ip), vehicle: saline with Tween-80
[18] = dose: 100.0 mg/kg/injection, schedule: Q01DX001 (ip), vehicle: saline
[19] = dose: 200.0 mg/kg/injection, schedule: Q01DX001 (ip), vehicle: saline
[20] = dose: 400.0 mg/kg/injection, schedule: Q01DX001 (ip), vehicle: saline
[21] = dose: 100.0 mg/kg/injection, schedule: Q01DX001 (ip), vehicle: saline with Tween-80
[22] = dose: 200.0 mg/kg/injection, schedule: Q01DX001 (ip), vehicle: saline with Tween-80
[23] = dose: 400.0 mg/kg/injection, schedule: Q01DX001 (ip), vehicle: saline with Tween-80
[24] = dose: 50.0 mg/kg/injection, schedule: Q01DX001 (ip), vehicle: saline

Measured: T/C

OC12C3CCCC1CCCC2CCC3 (configuration not stated)
inactive: dose: 100.0 mg/kg/injection, schedule: Q01DX009 (ip), vehicle: other 101 % of control | dose: 100.0 mg/kg/injection, schedule: Q01DX009 (ip), vehicle: saline sonified 103 % of control | [1] 110 % of control and 90 % of control | [2] 95 % of control and 106 % of control and 96 % of control | [3] 102 % of control | dose: 200.0 mg/kg/injection, schedule: Q01DX009 (ip), vehicle: other 94 % of control | dose: 200.0 mg/kg/injection, schedule: Q01DX009 (ip), vehicle: saline sonified 103 % of control | [4] 106 % of control and 89 % of control | [5] 108 % of control and 100 % of control and 96 % of control | [6] 102 % of control | dose: 400.0 mg/kg/injection, schedule: Q01DX009 (ip), vehicle: other 92 % of control | dose: 400.0 mg/kg/injection, schedule: Q01DX009 (ip), vehicle: saline sonified 92 % of control | [7] 95 % of control and 92 % of control | [8] 95 % of control and 104 % of control and 114 % of control | [9] 104 % of control

CCOC(=O)/C=[C](\C(=O)OCC)[Sn]([CH2]C)([CH2]C)[CH2]C
inactive: [10] 104 % of control | [1] 96 % of control | [4] 93 % of control

O=C1C(=O)c2ccccc2C(O)=C1CCCc1ccc(OCc2ccccc2)cc1
inactive: dose: 12.5 mg/kg/injection, schedule: Q01DX009 (ip), vehicle: saline with Tween-80 92 % of control

Cc1ccc(C(C)(C)[CH2][Sn]([CH2]C(C)(C)c2ccc(C)cc2)([CH2]C(C)(C)c2ccc(C)cc2)[CH2]C(C)(C)c2ccc(C)cc2)cc1
inactive: dose: 50.0 mg/kg/injection, schedule: Q04DX002 (ip), vehicle: saline with Tween-80 92 % of control | [11] 100 % of control | [12] 103 % of control | [13] 92 % of control

COc1ccccc1NC(=O)Nc1ccc(F)cc1
inactive: [14] 95 % of control | [2] 95 % of control | [15] 92 % of control | [5] 92 % of control | dose: 400.0 mg/kg/injection, schedule: Q01DX009 (ip), vehicle: Klucel (hydroxypropylcellulose) (HPC) 108 % of control | [8] 94 % of control

NC1CCC1N (configuration not stated)
inactive: [3] 104 % of control | [6] 108 % of control | [9] 98 % of control

O=C(O)c1scc2c1CCCC2
inactive: [16] 97 % of control | [17] 87 % of control

Cc1c(Cl)cccc1NC(=O)c1c(Cl)c(Cl)c(Cl)c(Cl)c1C(=O)O
inactive: [14] 102 % of control | [15] 103 % of control

CCOC(=O)c1cccc2c([N+](=O)[O-])cccc12
inactive: [18] 94 % of control | dose: 100.0 mg/kg/injection, schedule: Q01DX009 (ip), vehicle: acetone 96 % of control | [19] 98 % of control | dose: 200.0 mg/kg/injection, schedule: Q01DX009 (ip), vehicle: acetone 88 % of control | [20] 98 % of control | dose: 400.0 mg/kg/injection, schedule: Q01DX009 (ip), vehicle: acetone 97 % of control

O=C(Nc1ccccc1)OC1CCCC2CCC21 (configuration not stated)
inactive: [18] 97 % of control | [19] 90 % of control | [20] 90 % of control

COc1cc(OC)c(OCc2ccccc2)c(OC)c1
inactive: dose: 100.0 mg/kg/injection, schedule: Q01DX001 (ip), vehicle: carboxymethylcellulose (CMC) 96 % of control | dose: 200.0 mg/kg/injection, schedule: Q01DX001 (ip), vehicle: carboxymethylcellulose (CMC) 94 % of control | dose: 400.0 mg/kg/injection, schedule: Q01DX001 (ip), vehicle: carboxymethylcellulose (CMC) 96 % of control

O=C1Oc2ccccc2C(=O)Oc2ccccc2C(=O)Oc2ccccc2C(=O)Oc2ccccc21
inactive: dose: 75.0 mg/kg/injection, schedule: Q01DX001 (ip), vehicle: saline 87 % of control

CCCCCCCCCCCCCCCCCCCCCCCCC(O)C(=O)NC(CO)C(O)C(O)CCCCCCCCCCCCCC (configuration not stated)
inactive: [1] 88 % of control | [16] 87 % of control | [4] 94 % of control | [17] 92 % of control | [7] 88 % of control | dose: 400.0 mg/kg/injection, schedule: Q04DX003 (ip), vehicle: saline with Tween-80 87 % of control

CCOC(=O)C(C)SCC(CSC(C)C(=O)OCC)(CSC(C)C(=O)OCC)CSC(C)C(=O)OCC (configuration not stated)
inactive: [21] 104 % of control | [22] 107 % of control | [23] 104 % of control

O=c1[nH]c(=S)[nH]cc1CN(CCO)CCO
inactive: [24] 97 % of control | [18] 90 % of control | [19] 95 % of control

Cc1ccc(S(=O)(=O)OCC(COS(=O)(=O)c2ccc(C)cc2)(COS(=O)(=O)c2ccc(C)cc2)COS(=O)(=O)c2ccc(C)cc2)cc1
inactive: dose: 50.0 mg/kg/injection, schedule: Q04DX002 (ip), vehicle: Klucel (hydroxypropylcellulose) (HPC) 97 % of control | dose: 100.0 mg/kg/injection, schedule: Q04DX002 (ip), vehicle: Klucel (hydroxypropylcellulose) (HPC) 93 % of control and 105 % of control | dose: 200.0 mg/kg/injection, schedule: Q04DX002 (ip), vehicle: Klucel (hydroxypropylcellulose) (HPC) 102 % of control | dose: 400.0 mg/kg/injection, schedule: Q04DX002 (ip), vehicle: Klucel (hydroxypropylcellulose) (HPC) 110 % of control

CC1(C)CNC2OC1NCC2(C)C
inactive: dose: 100.0 mg/kg/injection, schedule: Q01DX001 (ip), vehicle: saline sonified 112 % of control | dose: 200.0 mg/kg/injection, schedule: Q01DX001 (ip), vehicle: saline sonified 89 % of control | dose: 400.0 mg/kg/injection, schedule: Q01DX001 (ip), vehicle: saline sonified 95 % of control

c1c[nH]c(N=Nc2ccc(N=Nc3ncc[nH]3)cc2)n1
inactive: [10] 100 % of control | [1] 94 % of control | [4] 94 % of control

O=C1NC(=O)C(F)(F)C(O)N1 (configuration not stated)
inactive: dose: 45.0 mg/kg/injection, schedule: Q01DX009 (ip), vehicle: saline 117 % of control | dose: 65.0 mg/kg/injection, schedule: Q01DX009 (ip), vehicle: saline 94 % of control | dose: 100.0 mg/kg/injection, schedule: Q01DX009 (ip), vehicle: saline 92 % of control | [3] 108 % of control | dose: 150.0 mg/kg/injection, schedule: Q01DX009 (ip), vehicle: saline 97 % of control | [6] 117 % of control | dose: 220.0 mg/kg/injection, schedule: Q01DX009 (ip), vehicle: saline 90 % of control | [9] 120 % of control

O=C(CCCC(=O)NNC(=S)Nc1ccccc1Cl)NNC(=S)Nc1ccccc1Cl
inactive: [24] 96 % of control | [18] 96 % of control | [19] 93 % of control | [20] 93 % of control

CC(O)C(c1ccccc1)c1ccccc1 (configuration not stated)
inactive: [10] 94 % of control | [1] 102 % of control | [4] 97 % of control

CC(=O)NC(CO)C(O)c1ccc([N+](=O)[O-])cc1 (configuration not stated)
inactive: [21] 101 % of control | [11] 87 % of control | [22] 87 % of control | [12] 94 % of control | [23] 97 % of control | [13] 100 % of control
